Structures can show the parent of a compound that is named as a salt.
What was measured:
Format in all cases: biochemical
[1] = target: T1, recombinant human DAO (diamine oxidase) (Homo sapiens, UniProt P19801); assay: Activity on recombinant human DAO, Amplex Red method, 1 mM putrescine substrate; conditions: recombinant human DAO, 1 mM putrescine substrate; read-out: Inhibitory Activity (IC50, nM) DAO
T1 construct: purchased R&D systems
T1 sequence (P19801 20-751): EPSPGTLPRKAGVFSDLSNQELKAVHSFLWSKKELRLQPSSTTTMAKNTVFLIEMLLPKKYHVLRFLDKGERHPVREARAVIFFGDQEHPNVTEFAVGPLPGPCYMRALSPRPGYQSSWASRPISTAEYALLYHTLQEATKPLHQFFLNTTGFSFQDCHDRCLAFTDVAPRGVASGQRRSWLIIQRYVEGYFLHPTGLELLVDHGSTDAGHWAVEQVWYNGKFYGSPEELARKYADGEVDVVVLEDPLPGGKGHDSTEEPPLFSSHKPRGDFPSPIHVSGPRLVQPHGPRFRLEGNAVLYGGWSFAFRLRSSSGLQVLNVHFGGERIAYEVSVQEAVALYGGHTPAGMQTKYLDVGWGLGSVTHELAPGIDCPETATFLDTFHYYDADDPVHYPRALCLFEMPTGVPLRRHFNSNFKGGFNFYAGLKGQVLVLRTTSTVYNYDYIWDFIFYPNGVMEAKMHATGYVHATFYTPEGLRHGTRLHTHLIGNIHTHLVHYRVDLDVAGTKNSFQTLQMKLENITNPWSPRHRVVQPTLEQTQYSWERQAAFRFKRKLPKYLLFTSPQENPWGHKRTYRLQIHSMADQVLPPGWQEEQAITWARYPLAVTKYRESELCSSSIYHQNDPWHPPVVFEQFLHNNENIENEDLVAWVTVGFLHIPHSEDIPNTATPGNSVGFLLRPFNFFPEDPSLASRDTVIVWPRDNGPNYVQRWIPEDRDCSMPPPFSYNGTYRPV
Procedure, shortened: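 Inhibition of recombinant human DAO (diamine oxidase, R&D systems) was assessed with the Amplex Red Hydrogen Peroxide Assay Kit. Hydrogen peroxide produced from 1 mM putrescine was detected through an HRP-coupled reaction that converts Amplex Red into fluorescent resorufin, read at 544 nm excitation and 590 nm emission. IC50 values came from four-parameter logistic fits in GraphPad Prism.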

[2] = target: T2, recombinant human MAO-B (monoamine oxidase-B) (Homo sapiens, UniProt P27338); assay: Activity on recombinant human MAO-B, Amplex Red method, 1 mM benzylamine substrate; conditions: 1 mM benzylamine substrate, read-out: Inhibitory Activity (IC50, nM) MAO-B
T2 construct: purchased Sigma-Aldrich
T2 sequence (P27338 1-520): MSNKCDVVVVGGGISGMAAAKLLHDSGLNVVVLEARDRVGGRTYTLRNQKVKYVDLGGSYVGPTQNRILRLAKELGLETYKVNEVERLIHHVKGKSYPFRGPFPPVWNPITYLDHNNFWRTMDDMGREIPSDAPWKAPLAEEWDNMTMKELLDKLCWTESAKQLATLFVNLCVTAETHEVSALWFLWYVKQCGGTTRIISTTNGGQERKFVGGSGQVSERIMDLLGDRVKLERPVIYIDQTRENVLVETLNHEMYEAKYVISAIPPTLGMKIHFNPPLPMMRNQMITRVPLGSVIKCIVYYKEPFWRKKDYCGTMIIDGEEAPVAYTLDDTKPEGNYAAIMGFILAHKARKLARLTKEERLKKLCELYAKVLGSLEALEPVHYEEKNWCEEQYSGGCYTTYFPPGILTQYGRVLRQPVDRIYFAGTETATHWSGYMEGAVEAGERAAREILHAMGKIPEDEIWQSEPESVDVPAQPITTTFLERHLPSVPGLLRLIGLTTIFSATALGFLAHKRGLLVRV
Procedure, shortened: (§1)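 First, serially diluted compounds were incubated with recombinant enzyme in 50 mM sodium phosphate, pH 7.4, for 30 min at 37° C. Next, Amplex Red (200 uM), HRP (1 U/mL) and tyramine (0.5 mM, MAO-A) or benzylamine (1 mM, MAO-B) were added. Then fluorescence was monitored over 1-2 h and IC50 fitted.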

recombinant human VAP-1 = target: T3, recombinant human VAP-1 (Homo sapiens, UniProt Q16853); assay: Activity on recombinant human VAP-1, Amplex Red HRP-coupled hydrogen peroxide assay, benzylamine substrate; conditions: recombinant human VAP-1, benzylamine substrate; read-out: Inhibitory Activity (IC50, nM) human VAP-1
T3 construct: purchased R&D systems
T3 sequence (Q16853 1-763): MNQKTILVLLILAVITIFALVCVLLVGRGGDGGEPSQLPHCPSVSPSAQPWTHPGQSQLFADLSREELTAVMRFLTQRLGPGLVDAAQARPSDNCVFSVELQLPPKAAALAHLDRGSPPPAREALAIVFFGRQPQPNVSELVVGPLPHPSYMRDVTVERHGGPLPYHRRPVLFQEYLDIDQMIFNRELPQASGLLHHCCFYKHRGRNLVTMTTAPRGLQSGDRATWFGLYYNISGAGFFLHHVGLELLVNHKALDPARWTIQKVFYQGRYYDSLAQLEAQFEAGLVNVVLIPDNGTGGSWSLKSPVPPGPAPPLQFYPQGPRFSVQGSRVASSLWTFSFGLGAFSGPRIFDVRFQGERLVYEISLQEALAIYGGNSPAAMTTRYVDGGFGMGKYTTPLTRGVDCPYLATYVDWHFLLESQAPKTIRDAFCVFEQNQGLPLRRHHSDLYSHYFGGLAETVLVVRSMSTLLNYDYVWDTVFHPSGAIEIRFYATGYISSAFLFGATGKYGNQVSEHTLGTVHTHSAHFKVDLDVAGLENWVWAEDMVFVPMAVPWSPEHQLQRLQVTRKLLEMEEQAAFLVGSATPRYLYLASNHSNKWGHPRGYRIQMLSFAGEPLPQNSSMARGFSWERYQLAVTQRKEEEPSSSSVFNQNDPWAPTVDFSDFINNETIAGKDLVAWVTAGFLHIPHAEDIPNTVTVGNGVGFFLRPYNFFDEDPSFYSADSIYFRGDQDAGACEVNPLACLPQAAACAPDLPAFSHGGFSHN
Procedure, shortened: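 H2O2 generation from 1 mM benzylamine was coupled via 1 U/mL HRP to 200 uM Amplex Red; inhibitors, serially diluted 1:3 over 8 points with under 1% final DMSO, had been preincubated 30 min at 37 °C. IC50 from percentage drop in rate.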

[3] = target: T4, recombinant human MAO-A (monoamine oxidase-A) (Homo sapiens, UniProt P21397); assay: Activity on recombinant human MAO-A, Amplex Red method, 0.5 mM tyramine substrate; conditions: 0.5 mM tyramine substrate, read-out: Inhibitory Activity (IC50, nM) MAO-A
T4 construct: purchased Sigma-Aldrich
T4 sequence (P21397 1-527): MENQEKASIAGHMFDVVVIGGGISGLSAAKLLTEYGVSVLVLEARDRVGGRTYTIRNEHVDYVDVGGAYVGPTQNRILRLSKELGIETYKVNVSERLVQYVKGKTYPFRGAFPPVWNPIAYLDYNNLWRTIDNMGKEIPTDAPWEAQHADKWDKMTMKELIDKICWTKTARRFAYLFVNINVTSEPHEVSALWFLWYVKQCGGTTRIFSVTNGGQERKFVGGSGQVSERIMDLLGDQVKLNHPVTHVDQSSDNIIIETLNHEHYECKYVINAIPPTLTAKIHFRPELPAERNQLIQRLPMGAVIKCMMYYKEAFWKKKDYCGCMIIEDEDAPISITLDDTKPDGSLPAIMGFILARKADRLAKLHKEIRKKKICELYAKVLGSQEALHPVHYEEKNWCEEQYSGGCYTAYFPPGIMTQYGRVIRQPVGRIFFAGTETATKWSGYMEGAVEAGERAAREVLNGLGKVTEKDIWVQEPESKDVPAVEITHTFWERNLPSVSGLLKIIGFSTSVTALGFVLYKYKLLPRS
Procedure, shortened: as §1

SMILES | IC50 [1] | IC50 [2] | IC50 (recombinant human VAP-1) | IC50 [3]
NC/C(=C\F)Cn1ncn(-c2cccc(-c3ccc(N4CCOCC4)nc3)n2)c1=O [Example 189, 2-[(2E)-2-(aminomethyl)-3-fluoroprop-2-en-1-yl]-4-[6′-(morpholin-4-yl)-2,3′-bipyridin-6-yl]-2,4-dihydro-3H-1,2,4-triazol-3-one] | < 30 nM | > 10000 nM | 0.53 nM | > 100000 nM
CN(C)c1ncc(-c2cccc(-n3cnn(C/C(=C/F)CN)c3=O)n2)cc1F [Example 191, 2-[(2E)-2-(aminomethyl)-3-fluoroprop-2-en-1-yl]-4-[6′-(dimethylamino)-5′-fluoro-2,3′-bipyridin-6-yl]-2,4-dihydro-3H-1,2,4-triazol-3-one hydrochloride] | 19 nM | 1200 nM | 0.5 nM | > 100000 nM
NC/C(=C\F)Cn1ncn(-c2cccc(-c3ccc4c(c3)OCO4)n2)c1=O [Example 193, 2-[(2E)-2-(aminomethyl)-3-fluoroprop-2-en-1-yl]-4-[6-(1,3-benzodioxol-5-yl)pyridin-2-yl]-2,4-dihydro-3H-1,2,4-triazol-3-one] | 38 nM | 1160 nM | 2.5 nM | > 100000 nM
NC/C(=C\F)Cn1ncn(-c2cccc(-c3ccc4nonc4c3)n2)c1=O [Example 195, 2-[(2E)-2-(aminomethyl)-3-fluoroprop-2-en-1-yl]-4-[6-(2,1,3-benzooxadiazol-5-yl)pyridin-2-yl]-2,4-dihydro-3H-1,2,4-triazol-3-one] | < 30 nM | 620 nM | 0.66 nM | > 100000 nM
NC/C(=C\F)Cn1ncn(-c2cccc(-c3ccc4sc(N)nc4c3)n2)c1=O [Example 196, 4-[6-(2-amino-1,3-benzothiazol-5-yl)pyridin-2-yl]-2-[(2E)-2-(aminomethyl)-3-fluoroprop-2-en-1-yl]-2,4-dihydro-3H-1,2,4-triazol-3-one] | 11 nM | > 10000 nM | 1.1 nM | > 100000 nM

More lines, now with the values ahead:

IC50 [1] | IC50 [2] | IC50 (recombinant human VAP-1) | IC50 [3] | SMILES
< 10 nM | > 10000 nM | 0.91 nM | > 100000 nM | NC/C(=C\F)Cn1ncn(-c2cccc(-c3ccc(C(=O)N4CCOCC4)cc3)n2)c1=O [Example 186, 2-[(2E)-2-(aminomethyl)-3-fluoroprop-2-en-1-yl]-4-{6-[4-(morpholin-4-ylcarbonyl)phenyl]pyridin-2-yl}-2,4-dihydro-3H-1,2,4-triazol-3-one hydrochloride]
< 10 nM | 940 nM | 0.45 nM | > 100000 nM | NC/C(=C\F)Cn1ncn(-c2cccc(-c3ccc(C(F)(F)F)nc3)n2)c1=O [Example 187, 2-[(2E)-2-(aminomethyl)-3-fluoroprop-2-en-1-yl]-4-[6′-(trifluoromethyl)-2,3′-bipyridin-6-yl]-2,4-dihydro-3H-1,2,4-triazol-3-one hydrochloride]
4 nM | 23000 nM | 0.6 nM | > 100000 nM | CN(C)c1ccc(-c2cccc(-n3cnn(C/C(=C/F)CN)c3=O)n2)cn1 [Example 188, 2-[(2E)-2-(aminomethyl)-3-fluoroprop-2-en-1-yl]-4-[6′-(dimethylamino)-2,3′-bipyridin-6-yl]-2,4-dihydro-3H-1,2,4-triazol-3-one hydrochloride]
5 nM | 190 nM | 0.6 nM | > 100000 nM | Cc1cc(-c2cccc(-n3cnn(C/C(=C/F)CN)c3=O)n2)cnc1F [Example 190, 2-[(2E)-2-(aminomethyl)-3-fluoroprop-2-en-1-yl]-4-(6′-fluoro-5′-methyl-2,3′-bipyridin-6-yl)-2,4-dihydro-3H-1,2,4-triazol-3-one hydrochloride]
0.4 nM | 250 nM | 1.4 nM | > 100000 nM | Cn1nc(C(F)(F)F)cc1-c1cccc(-n2cnn(C/C(=C/F)CN)c2=O)n1 [Example 192, 2-[(2E)-2-(aminomethyl)-3-fluoroprop-2-en-1-yl]-4-{6-[1-methyl-3-(trifluoromethyl)-1H-pyrazol-5-yl]pyridin-2-yl}-2,4-dihydro-3H-1,2,4-triazol-3-one hydrochloride]
2.9 nM | 2710 nM | 1.2 nM | > 100000 nM | NC/C(=C\F)Cn1ncn(-c2cccc(-c3ccc4c(c3)OCCO4)n2)c1=O [Example 194, 2-[(2E)-2-(aminomethyl)-3-fluoroprop-2-en-1-yl]-4-[6-(2,3-dihydro-1,4-benzodioxin-6-yl)pyridin-2-yl]-2,4-dihydro-3H-1,2,4-triazol-3-one]
2.6 nM | 250 nM | 0.08 nM | 81000 nM | Cc1cc(-c2cccc(-n3cnn(C/C(=C/F)CN)c3=O)n2)cc2c1NC(=O)CC2 [Example 197, 6-(6-{1-[(2E)-2-(aminomethyl)-3-fluoroprop-2-en-1-yl]-5-oxo-1,5-dihydro-4H-1,2,4-triazol-4-yl}pyridin-2-yl)-8-methyl-3,4-dihydroquinolin-2(1H)-one hydrochloride]
